Measured values: PubChem BioAssay AID2060489 (Molecular Pharmacology Branch, DTP, NCI, 2025)
“And” between values parts separate entries of the source, which are not always exact repeats. Equal values may be shown once.

Tested on: 922993-354-T-J3-PDC complex spheroids, viability
Test: Anticancer human tumor 922993-354-T-J3-PDC patient-derived endometrial carcinoma cell line growth inhibition [GQUAD]
Conditions: for viability, T/C: stronger effect = lower value
Excerpt: DNA G-quadruplex Stabilizer Agents in Combinations in Complex Spheroids
A high-throughput screen of multi-cell type tumor spheroids was designed to identify active combinations of DNA G-quadruplex stabilizer agents and targeted small molecules. Complex spheroids include a stromal component modeled by human endothelial cells (HUVEC) and fibroblasts modeled by human mesenchymal stem cells (MSCs). The concentration ranges selected for each drug and investigational agent were based upon clinically achievable concentrations if the clinical Cmax of the agent was known.
Compounds. The drugs and investigational agents: pidnarulex (CX-5461; NSC782164), APTO-253 (NSC789042), BRACO-19 (NSC847499), peposertib (NSC802822), ceralasertib (NSC780249), elimusertib (NSC800525), camonsertib (NSC841442), AZD-1390 (NSC803789), olaparib (NSC753686), talazoparib (NSC767125), ART-558 (NSC835418), sotorasib (NSC818433), MRTX-1133 (NSC836407), SN-38 (NSC673596), topotecan (NSC609699), etoposide (NSC141540), doxorubicin (NSC123127), gemcitabine (NSC613327), 5-fluorouracil (NSC19893), paclitaxel (NSC125973), vemurafenib (NSC761431), panobinostat (NSC761190), R-306465 (JNJ-16241199; NSC773264), adavosertib (NSC754352), TP-3654 (NSC805149), carboplatin (NSC241240), KSQ-4279 (NSC840948), and staurosporine (NSC755774) were obtained from the National Cancer Institute (NCI) Developmental Therapeutics Program Chemical Repository (34). The FDA-approved anticancer drug set is available from the NCI Developmental Therapeutics Program. […] The stock solutions were prepared in dimethyl sulfoxide (DMSO, Sigma-Aldrich, St. Louis, MO, cat. D2650) at 800-fold the tested concentration and stored at -70 degrees C prior to their use. All drugs and investigational agents were tested over a range starting from a high concentration at or near the clinical Cmax and decreasing in half-log increments. If the clinical Cmax for an agent had not been determined, the highest concentration tested was 10 microM.
2.3 Cell Culture. All cells were maintained in an incubator at 37 degrees C and 5% CO2 with 95% humidity. The PDC lines were cultured according to standard operating procedures established by the NCI PDMR. All PDCs were thawed and cultured in Matrigel-coated flasks prepared with a working solution of 1X Ham's F-12 nutrient mix, without supplementation (Invitrogen, cat. 11765054), 100 U/mL penicillin-streptomycin (Invitrogen, cat. 15140122), and 2.5% Matrigel (Corning Inc., cat. 354248) for the first three passages. The 857933-349-R-J2-PDC line was cultured in 6C/Colon 1B media, which includes advanced DMEM/F-12 (Thermo Fisher Scientific, cat. 12634028), 10 mM HEPES (Thermo Fisher Scientific, cat. 15630080), 1X GlutaMAX supplement (Thermo Fisher Scientific, cat. 35050061), 0.1 mg/mL primocin (InvivoGen, cat. ant-pm-2), 10% defined fetal bovine serum, heat inactivated (HyClone Laboratories Inc., cat. SH30070.03HI), 50% L-WRN conditioned media (ATCC, cat. CRL-3276), 1.25 mM N-Acetyl-L-cysteine (Sigma-Aldrich, cat. A9165), 10 mM nicotinamide (Sigma-Aldrich, cat. N0636), 1X B-27 supplement (Thermo Fisher Scientific, cat. 17504044), 1X N-2 supplement (Thermo Fisher Scientific, cat. 17502048), 10 microM Y-27632 dihydrochloride (Tocris Bioscience, cat. 1254), and 50 ng/mL human EGF recombinant protein (Thermo Fisher Scientific, cat. PHG0311). The 485176-168-R4-J1-PDC line was cultured in Panc media, which includes all 6C/Colon 1B media components plus 100 ng/mL human FGF-10 (Thermo Fisher Scientific, cat. 100-26), 500 nM SB-431542 (Selleckchem, cat. S1067), and gastrin (Tocris, cat. 3006).
[…]
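Also: spheroids exposed to compounds for seven days.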
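For viability, T/C in this document: 100% = DMSO vehicle control viability.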

Structure (SMILES): CCCS(=O)(=O)Nc1ccc(F)c(C(=O)c2c[nH]c3ncc(-c4ccc(Cl)cc4)cc23)c1F + CN(C)c1ccc(Nc2c3ccc(NC(=O)CCN4CCCC4)cc3nc3cc(NC(=O)CCN4CCCC4)ccc23)cc1
- IC50 (curve of first compound, second compound 0.0316 µM): > 10 µM
- IC50 (curve of first compound, second compound 0.1 µM): 8.45 µM
- IC50 (curve of first compound, second compound 0.316 µM): > 10 µM
- IC50 (curve of first compound, second compound 1 µM): > 10 µM
- IC50 (curve of first compound, second compound 3.16 µM): > 10 µM
- IC50 (curve of first compound, second compound 10 µM): > 10 µM
- viability, T/C (second compound 0.0316 µM, first compound 0.0316 µM): 91.6%
- viability, T/C (second compound 0.0316 µM, first compound 0.1 µM): 94.2%
- viability, T/C (second compound 0.0316 µM, first compound 0.316 µM): 103%
- viability, T/C (second compound 0.0316 µM, first compound 1 µM): 66.5%
- viability, T/C (second compound 0.0316 µM, first compound 3.16 µM): 72.2%
- viability, T/C (second compound 0.0316 µM, first compound 10 µM): 60.6%
- viability, T/C (second compound 0.1 µM, first compound 0.0316 µM): 78.2%
- viability, T/C (second compound 0.1 µM, first compound 0.1 µM): 83.9%
- viability, T/C (second compound 0.1 µM, first compound 0.316 µM): 95%
- viability, T/C (second compound 0.1 µM, first compound 1 µM): 80.3%
- viability, T/C (second compound 0.1 µM, first compound 3.16 µM): 68.1%
- viability, T/C (second compound 0.1 µM, first compound 10 µM): 46.9%
- viability, T/C (second compound 0.316 µM, first compound 0.0316 µM): 105%
- viability, T/C (second compound 0.316 µM, first compound 0.1 µM): 78.5%
- viability, T/C (second compound 0.316 µM, first compound 0.316 µM): 89.6%
- viability, T/C (second compound 0.316 µM, first compound 1 µM): 94.7%
- viability, T/C (second compound 0.316 µM, first compound 3.16 µM): 83.1%
- viability, T/C (second compound 0.316 µM, first compound 10 µM): 68.1%
- viability, T/C (second compound 1 µM, first compound 0.0316 µM): 82.5%
- viability, T/C (second compound 1 µM, first compound 0.1 µM): 86%
- viability, T/C (second compound 1 µM, first compound 0.316 µM): 83.3%
- viability, T/C (second compound 1 µM, first compound 1 µM): 80.2%
- viability, T/C (second compound 1 µM, first compound 3.16 µM): 79.3%
- viability, T/C (second compound 1 µM, first compound 10 µM): 60.8%
- viability, T/C (second compound 3.16 µM, first compound 0.0316 µM): 97.5%
- viability, T/C (second compound 3.16 µM, first compound 0.1 µM): 101%
- viability, T/C (second compound 3.16 µM, first compound 0.316 µM): 108%
- viability, T/C (second compound 3.16 µM, first compound 1 µM): 87.8%
- viability, T/C (second compound 3.16 µM, first compound 3.16 µM): 84.9%
- viability, T/C (second compound 3.16 µM, first compound 10 µM): 53.8%
- viability, T/C (second compound 10 µM, first compound 0.0316 µM): 103%
- viability, T/C (second compound 10 µM, first compound 0.1 µM): 111%
- viability, T/C (second compound 10 µM, first compound 0.316 µM): 131%
- viability, T/C (second compound 10 µM, first compound 1 µM): 122%
- viability, T/C (second compound 10 µM, first compound 3.16 µM): 115%
- viability, T/C (second compound 10 µM, first compound 10 µM): 78.4%

Structure (SMILES): O=c1[nH]cc(F)c(=O)[nH]1
- viability, T/C (compound 0.0316 µM): 104% and 107% and 113%
- viability, T/C (compound 0.1 µM): 98.3% and 97.9% and 83.3%
- viability, T/C (compound 0.316 µM): 99.5% and 94.9% and 75%
- viability, T/C (compound 1 µM): 76% and 72.9% and 90.1%
- viability, T/C (compound 3.16 µM): 81.2% and 74.1% and 57%
- viability, T/C (compound 10 µM): 47.9% and 65.3% and 16.6%
- IC50 (curve of compound): > 10 µM and 3.85 µM

Structure (SMILES): CC(=O)O[C@H]1C(=O)[C@@]2(C)[C@H]([C@H](OC(=O)c3ccccc3)[C@]3(O)C[C@H](OC(=O)[C@H](O)[C@@H](NC(=O)c4ccccc4)c4ccccc4)C(C)=C1C3(C)C)[C@]1(OC(C)=O)CO[C@@H]1C[C@@H]2O
- viability, T/C (compound 0.0316 µM): 109% and 89.5% and 121%
- viability, T/C (compound 0.1 µM): 95% and 93% and 85.9%
- viability, T/C (compound 0.316 µM): 84.9% and 103% and 93.4%
- viability, T/C (compound 1 µM): 111% and 108% and 102%
- viability, T/C (compound 3.16 µM): 75.6% and 78.7% and 84.9%
- viability, T/C (compound 10 µM): 36.8% and 47.7% and 50%
- IC50 (curve of compound): 6.76 µM and 9.18 µM and > 10 µM
